Experiments:
[1] = tested on: T1, C. trachomatis L2/434/Bu expressing GFP (CTL2-GFP); test: microbe, parasite or virus in culture; set-up: C. trachomatis total inclusion area by high-content imaging, normalised to DMSO; conditions: Chlamydia trachomatis, HeLa, 28.5 h; total inclusion area; read-out: % of control remaining
T1 construct: L2/434/Bu GFP intracellular growth in HeLa cells
Procedure, shortened: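 A 36,785-compound library was screened using bulk GFP and resorufin fluorescence, followed by Hoechst staining and high-content imaging of inclusions (GFP) and host nuclei. Inclusion area and number served as growth proxies and nuclei counts as a viability proxy. MICs were calculated from these readouts.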

in vitro = test: in vitro; set-up: Viability of infected HeLa host cells, resazurin conversion, bulk resorufin fluorescence relative to DMSO; conditions: human, hela cells; bulk resorufin, mean of 2
[2] = tested on: T2, CTL2-GFP (C. trachomatis L2/434/Bu, GFP-expressing); test: microbe, parasite or virus in culture; set-up: Intracellular C. trachomatis growth in HeLa cells, bulk GFP fluorescence relative to DMSO; conditions: Chlamydia trachomatis, HeLa, 28.5 h; bulk GFP, mean of 2; read-out: % of control remaining
T2 construct: L2/434/Bu, GFP-expressing
Method: MICs were calculated as described above.

| Compound | activity at 1 µM [1] [%] | activity at 5 µM [1] [%] | activity at 10 µM [1] [%] | viability at 28.5 h, 1 µM (in vitro) [%] | viability at 28.5 h, 5 µM (in vitro) [%] | viability at 28.5 h, 10 µM (in vitro) [%] | activity at 1 µM [2] [%] | activity at 5 µM [2] [%] | activity at 10 µM [2] [%] |
| --- | --- | --- | --- | --- | --- | --- | --- | --- | --- |
| CN(C)c1ccc(Nc2nc(NCCO)c3ccccc3n2)cc1 [CBK268392C] | 69.7 | 4.24 | 0.899 | 95.3 | 103 | 100 | 130 | 4.94 | 6.78 |
| Oc1ccccc1Nc1nc(NC2CCCC2)c2ccccc2n1 [CBK268402C] | 43.4 | 23.2 | 4.48 | 90.7 | 94.1 | 104 | 120 | 45.9 | 9.92 |
| O=[N+]([O-])c1cccc(C(Nc2cccnc2)c2cc(Cl)c3cccnc3c2O)c1 (stereo not drawn) [CBK268629] | 104 | 93.6 | 47.5 | 93.9 | 88.9 | 91.6 | 102 | 82 | 56.2 |
| O=C1Oc2nc3ccccc3cc2CN1C1CC1 [CBK282870] | 0.264 | 0.496 | 0.404 | 112 | 112 | 98.4 | 0.777 | 1.12 | 3.61 |
| O=C(c1cccs1)N1C[C@H](c2ccc(F)cc2)[C@H]2CN(Cc3ccccc3)CC[C@H]21 [CBK285544] | 74.8 | 78.2 | 59.8 | 93.4 | 91.7 | 95.5 | 93.9 | 109 | 115 |
| Cc1cccc(-c2ccc(CC3(C(N)=O)CCN(C(=O)CCc4ccccc4)CC3)cc2)c1 [CBK285796] | 113 | 4.18 | 1.3 | 91.6 | 96.9 | 106 | 133 | 4.53 | 4.56 |
| Cc1ccc2[nH]c(-c3cccc(NC(=O)c4cccc(CN5CCCC5=O)c4)c3)nc2c1 [CBK285838] | 125 | 91.8 | 48.2 | 93 | 83.3 | 87.6 | 137 | 94.9 | 34.2 |
| O=C(CC1CCN(CCc2ccccc2)CC1)Nc1cccc(-n2cccn2)c1 [CBK285951] | 13.7 | 0.475 | 0.166 | 91.7 | 87.4 | 88.6 | 11.3 | 5.45 | 1.48 |
| CCc1cc(-c2n[nH]cc2-c2nc(C)cs2)c(O)cc1OC [CBK287934] | 87.9 | 31.5 | 6.53 | 101 | 96.8 | 94.8 | 133 | 62.2 | 7.47 |
| CNC(=S)N1CCN(c2nsc3ccccc23)CC1 [CBK288515] | 0.93 | 0.381 | 0.417 | 98.8 | 96.2 | 101 | 4.18 | 3.58 | 5.68 |
| O=C(O)c1cn(C2CC2)c2cc(N3CCN(C(=O)C4CCCO4)CC3)c(F)cc2c1=O (stereo not drawn) [CBK297139] | 46.9 | 12.4 | 6.62 | 97 | 94.9 | 114 | 96.1 | 15.3 | 0.67 |
